The values below are quoted from earlier work in US20170368135A1, “HERBAL DRUG COMPOSITION CONTAINING PROBIOTIC AND OPTIONALLY PREBIOTIC AND/OR ACTIVE PHARMACEUTICAL INGREDIENT” (VITALIVA, LLC, priority 2016, published 2017).

The structures appear in SMILES notation.

Data set [1] relates to alcoholic liver disease. As to conditions: in vivo.
Data set [2] concerns NF-κB in Kupffer cells.

Turning to `COc1cc(/C=C/C(=O)CC(=O)/C=C/c2ccc(O)c(OC)c2)ccc1O` [Curcumin], in data set [1], the “physiological changes induced by alcohol” value is “dietary spice turmeric, shows that curcimin administration prevented”. In addition, the “endotoxin-mediated activation of NF-κB” value in data set [2] is on record as “phsyciological changes induced by alcohol. Curcumin blocks”. Also, in data set [2] (Kupffer cells), the “expression of cytokines, chemokines, COX-2, and iNOS” value was “endotoxin-mediated activation of NF-κB and suppresses the expression”.
